Consider three molecules from US20180021405A1, “NUTRITIONAL APPROACH TO THE CONTROL OF ANEMIA, DIABETES AND OTHER DISEASES OR CONDITIONS AND PREVENTION OF ASSOCIATED COMORBID STATES WITH THE USE OF ERGOTHIONEINE” (priority 2011, published 2018).

The conditions of data set [1]: mushroom test meal, 8 g and 16 g mushroom powder; cited from earlier work.
In data set [2] the test system is Drosophila melanogaster. Description: survival under Paraquat-induced oxidative stress. The class given is in vivo. The note with it: 10 mM Paraquat. On the procedure:
The effect of Agaricus Blazei without enrichment, with Vitamin D2 enrichment, pure Vitamin D2 and control (vehicle for the delivery) on the survival rate of Drosophila melanogaster under Paraquat-induced oxidative stress condition was tested. The study focused on the control of Paraquat induced oxidative stress/biologic death. Paraquat is a very potent oxidative stress inducing chemical and causes death in animals and plants by the toxicity of released free radicals. Paraquat (10 mM concentration) (Sigma Aldrich) was used to chemically induce oxidative stress. Paraquat is the trade name for N,N′-dimethyl-4,4′-bipyridinium dichloride, a widely used herbicide. Paraquat, a viologen, is quick-acting and non-selective, killing green plant tissue on contact. It is also toxic to humans when swallowed. This is the most standard chemical used in experimental induction of oxidative stress using the Drosophila model system. It catalyzes the formation of reactive oxygen species (ROS). Paraquat will undergo redox cycling in vivo, gets reduced by an electron donor such NADPH, before being oxidized by an electron receptor such as dioxygen to produce superoxide, a major ROS.
The following materials and methods were utilized. Vials containing 10 mM Paraquat (from Sigma Aldrich) in 5 ml of 1.2% Low melting point Agarose medium were prepared. A strip of half moist filter paper was inserted in the medium (with the wet end in). Yeast paste containing 1% concentration (w/w) of the various test materials (see above) mixed to homogeneity was prepared. Yeast paste without drug was used as control. Uniform aliquot (˜300 mg) of yeast paste with or without the test material) was applied to vials in such a way that yeast paste was on the glass surface and covered the dry end (top) of the filter paper strip. Freshly enclosed wild type isogenized Canton-S males and females were collected and starved on 1% agar medium for 5-6 hours. Four males and females were transferred to the vial containing 10 mM Paraquat in LMP agarose medium and yeast paste with +/− test material (8 flies per vial). 6 vials were used per experiment. Vials with flies were placed horizontally in a tray. The experiment was conducted at 25 degrees C. temperature. Flies were transferred once in 2 days and the number of flies surviving at each transfer was recorded.

Data set [3] concerns Alzheimer's disease mutant fruit fly (APP over-expression). Put plainly: survival and life span in Alzheimer's disease (AD) model flies. More on the design: species or system Drosophila. The note with it: in vivo.
Source text: Type of Model (with specific Drosophila model of neurodegeneration). The targeted over/ectopic expression of APP in the brain using a UAS promoter driven APP transgene, induced by a specific GAL4 trans-driver in the brain of a Drosophila model system, was used for this Example.
The AD strain lives only for a few days after their eclosion (birth) as opposed to 65 days or more for wild type normal strains.
We determined the extension of life span in the mutant strain for each test compound. We used a specific GAL4 driver that induces the APP gene in the central brain area at high levels (see above) and results in a fully penetrant lethality within a 2-3 weeks period.
Data set [4] has as its system hemodialysis patients. The note with it: human, in vivo; cited from earlier work.
Data set [5] concerns vitamin D-deficient dialysis patients. The note with it: 81 patients; cited from earlier work.

`C[N+](C)(C)[C@@H](Cc1c[nH]c(=S)[nH]1)C(=O)[O-]` [ET, L-Ergothioneine]: in data set [1], the “bioavailability of ET from mushrooms” value was “bioavailable” and the “time of ET peak in red blood cells after mushroom consumption” value is 2 h.

With `C=C1CC[C@H](O)C/C1=C/C=C1\CCC[C@]2(C)[C@@H]([C@H](C)CCCC(C)C)CC[C@@H]12` [Vitamin D3, cholecalciferol], the “effect on survival under Paraquat-induced oxidative stress (words)” value in data set [2] was “no beneficial effect”. Besides, the “survival rate of AD flies relative to control” value in data set [3] is recorded as “no such effect”.

Regarding `C=C1CC[C@H](O)C/C1=C/C=C1\CCC[C@]2(C)[C@@H]([C@H](C)/C=C/[C@H](C)C(C)C)CC[C@@H]12` [pure Vitamin D2, Ergocalciferol], the “effect on survival under Paraquat-induced oxidative stress (words)” value in data set [2] is “no effect”; in data set [2] (listed as Vitamin D2), “no beneficial effect”; in data set [2] (listed as Vitamin D2 in its pure form) it was “deleterious effect”. Moreover, in data set [2] (1% w/w in yeast paste, over 10 days, 25 degrees C), the “survivability under Paraquat-induced oxidative stress” value is reported as 13%+/−3%. For the same molecule, in data set [3], the “survival rate of AD flies relative to control” value is on record as “no such effect”. Further, in data set [4], the “patients with a reduction in EPO dose after supplementation” value was 64%. The “patients able to reach 25-D levels of 30 ng/mL or greater” value in data set [5] is listed as 44%. In addition, in data set [5], the “patients requiring less EPO with supplementation” value is listed as 57%.
